Experimental data from PMC3331904 (2012).

Biological target: TORC1 (TOR complex 1 kinase) (Saccharomyces cerevisiae, UniProt P35169)
Assay: TORC1 in vitro kinase assay
Assay type: biochemical

Sequence of TORC1 (TOR complex 1 kinase) (P35169 whole entry): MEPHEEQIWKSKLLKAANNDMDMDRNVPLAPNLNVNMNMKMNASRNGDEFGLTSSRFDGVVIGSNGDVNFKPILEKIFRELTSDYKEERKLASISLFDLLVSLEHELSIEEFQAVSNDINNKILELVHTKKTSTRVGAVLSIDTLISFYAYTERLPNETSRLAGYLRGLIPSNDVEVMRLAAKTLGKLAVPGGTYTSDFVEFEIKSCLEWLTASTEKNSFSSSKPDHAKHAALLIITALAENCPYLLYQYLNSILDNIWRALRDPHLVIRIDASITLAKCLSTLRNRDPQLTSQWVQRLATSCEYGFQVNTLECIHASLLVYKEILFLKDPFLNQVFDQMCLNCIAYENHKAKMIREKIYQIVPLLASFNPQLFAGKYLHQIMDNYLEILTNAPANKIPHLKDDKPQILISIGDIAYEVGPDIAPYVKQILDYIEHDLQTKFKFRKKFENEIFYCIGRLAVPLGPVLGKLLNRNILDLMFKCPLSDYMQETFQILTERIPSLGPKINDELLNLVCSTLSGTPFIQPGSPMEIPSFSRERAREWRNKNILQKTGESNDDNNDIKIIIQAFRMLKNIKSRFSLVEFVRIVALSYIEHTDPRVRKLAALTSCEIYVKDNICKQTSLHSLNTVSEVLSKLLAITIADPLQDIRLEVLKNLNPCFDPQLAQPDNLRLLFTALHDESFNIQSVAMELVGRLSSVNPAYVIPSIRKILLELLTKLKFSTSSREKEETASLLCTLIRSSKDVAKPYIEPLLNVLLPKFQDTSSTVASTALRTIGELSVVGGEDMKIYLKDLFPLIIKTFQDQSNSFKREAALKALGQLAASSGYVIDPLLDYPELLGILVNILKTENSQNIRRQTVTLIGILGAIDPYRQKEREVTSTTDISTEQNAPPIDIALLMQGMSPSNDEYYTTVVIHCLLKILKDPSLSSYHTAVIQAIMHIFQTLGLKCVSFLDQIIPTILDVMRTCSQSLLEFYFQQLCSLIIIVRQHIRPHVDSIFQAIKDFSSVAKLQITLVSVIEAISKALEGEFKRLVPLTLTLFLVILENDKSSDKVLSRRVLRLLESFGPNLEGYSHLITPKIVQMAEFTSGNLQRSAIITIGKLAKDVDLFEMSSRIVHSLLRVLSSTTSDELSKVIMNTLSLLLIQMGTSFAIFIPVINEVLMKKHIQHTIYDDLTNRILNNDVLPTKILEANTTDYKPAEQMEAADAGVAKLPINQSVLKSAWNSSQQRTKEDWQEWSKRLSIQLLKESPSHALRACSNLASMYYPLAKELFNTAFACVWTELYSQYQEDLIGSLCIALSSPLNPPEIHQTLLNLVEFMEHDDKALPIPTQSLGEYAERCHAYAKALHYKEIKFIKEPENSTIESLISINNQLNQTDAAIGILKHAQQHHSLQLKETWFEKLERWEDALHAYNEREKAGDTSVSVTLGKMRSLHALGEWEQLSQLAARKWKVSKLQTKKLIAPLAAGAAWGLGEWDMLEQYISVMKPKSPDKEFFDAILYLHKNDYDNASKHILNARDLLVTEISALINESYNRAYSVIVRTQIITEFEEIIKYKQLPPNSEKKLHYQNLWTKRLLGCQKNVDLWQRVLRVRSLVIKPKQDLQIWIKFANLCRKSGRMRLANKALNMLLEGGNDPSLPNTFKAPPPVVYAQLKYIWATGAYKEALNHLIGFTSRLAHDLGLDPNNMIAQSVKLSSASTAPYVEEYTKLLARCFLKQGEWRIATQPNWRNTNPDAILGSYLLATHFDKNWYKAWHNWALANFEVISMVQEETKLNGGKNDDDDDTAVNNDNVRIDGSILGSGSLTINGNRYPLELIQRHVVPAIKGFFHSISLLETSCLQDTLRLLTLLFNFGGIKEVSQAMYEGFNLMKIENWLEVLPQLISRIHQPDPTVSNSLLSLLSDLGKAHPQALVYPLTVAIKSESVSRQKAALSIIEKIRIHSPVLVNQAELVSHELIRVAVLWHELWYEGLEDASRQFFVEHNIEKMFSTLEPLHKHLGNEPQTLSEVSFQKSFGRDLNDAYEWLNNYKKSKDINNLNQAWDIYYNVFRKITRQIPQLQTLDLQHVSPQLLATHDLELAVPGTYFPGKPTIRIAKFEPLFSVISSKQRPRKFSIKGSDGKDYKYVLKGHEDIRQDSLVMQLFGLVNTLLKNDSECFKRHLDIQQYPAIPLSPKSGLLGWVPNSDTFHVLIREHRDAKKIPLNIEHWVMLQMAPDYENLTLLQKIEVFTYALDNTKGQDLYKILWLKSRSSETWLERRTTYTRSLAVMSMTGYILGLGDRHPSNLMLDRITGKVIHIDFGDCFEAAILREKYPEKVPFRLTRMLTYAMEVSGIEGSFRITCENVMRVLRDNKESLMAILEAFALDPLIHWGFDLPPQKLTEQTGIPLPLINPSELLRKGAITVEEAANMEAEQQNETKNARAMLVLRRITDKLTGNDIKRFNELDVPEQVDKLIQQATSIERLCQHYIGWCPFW
Sequence of TORC1 (TOR complex 1 kinase) (P38873 whole entry partner): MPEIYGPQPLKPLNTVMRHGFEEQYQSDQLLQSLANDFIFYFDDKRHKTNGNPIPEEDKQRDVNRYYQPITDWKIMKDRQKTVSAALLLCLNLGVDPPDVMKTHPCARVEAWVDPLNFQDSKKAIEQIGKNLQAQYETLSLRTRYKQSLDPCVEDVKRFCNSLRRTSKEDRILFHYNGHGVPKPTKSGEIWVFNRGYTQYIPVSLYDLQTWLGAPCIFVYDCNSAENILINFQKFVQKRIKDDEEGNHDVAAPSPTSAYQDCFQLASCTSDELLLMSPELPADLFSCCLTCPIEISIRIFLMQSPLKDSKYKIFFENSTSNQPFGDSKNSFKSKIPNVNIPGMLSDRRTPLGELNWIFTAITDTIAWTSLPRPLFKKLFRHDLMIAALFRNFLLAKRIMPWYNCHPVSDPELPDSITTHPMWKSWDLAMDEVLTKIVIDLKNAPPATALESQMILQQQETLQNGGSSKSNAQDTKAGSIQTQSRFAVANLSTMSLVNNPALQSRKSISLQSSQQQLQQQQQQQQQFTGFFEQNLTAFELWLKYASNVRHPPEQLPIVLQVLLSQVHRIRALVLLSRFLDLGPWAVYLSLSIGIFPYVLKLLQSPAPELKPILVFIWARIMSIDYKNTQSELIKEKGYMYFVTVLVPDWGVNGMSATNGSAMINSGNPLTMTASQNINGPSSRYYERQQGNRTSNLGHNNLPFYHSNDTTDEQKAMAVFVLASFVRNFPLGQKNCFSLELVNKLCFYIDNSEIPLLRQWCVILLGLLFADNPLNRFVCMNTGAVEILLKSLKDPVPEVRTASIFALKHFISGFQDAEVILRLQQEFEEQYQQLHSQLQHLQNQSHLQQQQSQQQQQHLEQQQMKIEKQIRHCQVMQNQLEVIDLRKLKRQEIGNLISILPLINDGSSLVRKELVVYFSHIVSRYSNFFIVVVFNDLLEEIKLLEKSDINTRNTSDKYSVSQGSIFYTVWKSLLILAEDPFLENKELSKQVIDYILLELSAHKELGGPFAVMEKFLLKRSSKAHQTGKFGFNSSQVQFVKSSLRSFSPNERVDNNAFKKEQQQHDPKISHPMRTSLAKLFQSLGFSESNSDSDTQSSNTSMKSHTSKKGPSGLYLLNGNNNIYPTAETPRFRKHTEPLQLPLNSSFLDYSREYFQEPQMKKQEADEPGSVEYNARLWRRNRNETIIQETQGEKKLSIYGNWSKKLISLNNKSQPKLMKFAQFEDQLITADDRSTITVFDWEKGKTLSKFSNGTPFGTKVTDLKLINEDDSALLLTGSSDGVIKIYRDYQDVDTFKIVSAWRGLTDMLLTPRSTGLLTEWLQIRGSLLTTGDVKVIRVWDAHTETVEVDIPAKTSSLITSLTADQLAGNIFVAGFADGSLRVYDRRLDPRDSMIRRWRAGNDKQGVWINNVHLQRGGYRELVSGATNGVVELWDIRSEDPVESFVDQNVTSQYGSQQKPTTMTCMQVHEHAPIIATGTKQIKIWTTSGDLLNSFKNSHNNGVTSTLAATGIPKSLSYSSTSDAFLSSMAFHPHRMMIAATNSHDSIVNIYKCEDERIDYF

SMILES: CNc1nc(N)c([N+](=O)[O-])c(Nc2cccc(F)c2)n1 [CID 3528206]
- IC50: ~150 nM
